Data on seven molecules can be found in patent US20220370471A1, “COMPOSITION AND METHOD FOR TREATMENT OF HIPPOCAMPAL SYNAPSE DYSFUNCTION AND COGNITIVE DEFICITS IN ALZHEIMER'S DISEASE” (BOARD OF REGENTS, THE UNIVERSITY OF TEXAS SYSTEM, priority 2019, published 2022).

One assay concerns the target T1, Ghsr1α (Mus musculus, UniProt Q99P50, INS247CCPGCC).
T1 construct: Mouse full length Ghsr1α cDNA (NCBI Gene ID: 208188) was purchased from OriGene (MR226073); expressed in transfected cells; host or cells: HEK 293T
Put plainly: FlAsH-based FRET assay of Ghsr1α activity in HEK 293T cells. It counts as cell-based. The settings on record: oligomeric Aβ42 2 μM, 5 minutes pre-incubation.

Assay [1] has as its target T2, Drd1 (Mus musculus, UniProt Q61616, INS245CCPGCC).
T2 construct: expressed in transfected cells; host or cells: HEK 293T
Description: FlAsH-based FRET assay of Drd1 activity in HEK 293T cells. It counts as cell-based. The settings on record: oligomeric Aβ42 2 μM preincubation; SKF81297 100 μM. The procedure: GHSR1α forms a complex with DRD1 to regulate DRD 1-mediated hippocampal synaptic strength and memory (8). In order to fully evaluate the influence of Aβ on GHSR1α, the inventor next examined whether oligomeric Aβ42 affects heterodimerization of GHSR1α and DRD1 by using HEK 293T cells co-expressing Ghsr1α and Drd1 (FIG. 2c, FIG. S2). After an incubation with oligomeric Aβ42 (5 μM) for 24 hours, the interaction between Ghsr1α and Drd1 determined by Duolink PLA was suppressed (FIGS. 2d-e), indicating the inhibitory effect of oligomeric Aβ42 on Ghsr1α/Drd1 heterodimerization. To test whether GHSR1α/DRD1 interaction was modulated in a clinical setting, the inventor examined hippocampal tissues from 5 patients with AD and compared with tissues from 5 healthy controls. […] Decreased Ghsr1α/Drd1 heterodimerization also occurred in 5×FAD mice, and this effect was exacerbated with age (FIGS. 2h-i). […]
FlAsH-based FRET. […] Fluorescence signals were monitored on microplate reader (BioTek Cytation 5) before and after the treatments. […] Area scanning read mode was used to correct artificial inaccuracies. The FRET ratio (FFlAsH/FECFP) was calculated according to equation as previously reported (69): […]

Another assay concerns the target T3, Ghsr1α Δaa42-116 (Mus musculus, UniProt Q99P50, DEL42-116).
T3 construct: Mouse full length Ghsr1α cDNA (NCBI Gene ID: 208188) was purchased from OriGene (MR226073); expressed in transfected cells; host or cells: HEK 293T
Description: Duolink PLA and Co-IP of oligomeric Aβ42 with Ghsr1α mutants in HEK 293T cells. It counts as binding. Particulars: 5 μM oligomeric Aβ42, 24 hours; Duolink PLA, validated by Co-IP. From the text:
Aβ3 physically interacts with GHSR1α. To determine whether GHSR1α expression is changed in the hippocampus in AD, the inventor performed immunohistochemical and membrane blotting assays in post-mortem hippocampal tissues from 4 subjects with AD and 4 non-demented healthy donors (non-AD). He observed increased GHSR1α expression in hippocampal tissues from patients with AD (FIGS. S1a-b and Table S1), which positively correlated with the amounts of soluble Aβ40 and Aβ42 in hippocampi (FIGS. S1c-d). […] Because Aβ binds to multiple proteins (14-16), the inventor next explored whether GHSR1α is an Aβ binding target. In order to examine the interaction between GHSR1α and AP, he labeled GHSR1α and Aβ with their specific antibodies and ran Duolink proximity ligation assay (PLA), which is a sensitive method to visualize and quantify direct protein interactions in situ (17), on hippocampal tissues from 4 subjects with AD and 4 healthy donors. The inventor observed Aβ3/GHSR1α complexes in hippocampi from patients with AD (FIGS. 1a-b). […] HEK 293T cells expressing full-length mouse Ghsr1α or its mutants were exposed to 5 μM oligomeric Aβ42 for 24 hours followed by Duolink PLA to detect Aβ/Ghsr1α complexes. […]
(§1) Duolink In Situ Proximity Ligation Assay (PLA). […] NIH Image J was used for PLA signal quantification. […]

Another assay has as its target T4, Ghsr1α/Drd1 (Mus musculus, UniProt Q99P50).
T4 construct: Mouse full length Ghsr1α cDNA (NCBI Gene ID: 208188) was purchased from OriGene (MR226073); expressed in transfected cells; host or cells: HEK 293T
Description: Duolink PLA of Ghsr1α/Drd1 interaction in co-expressing HEK 293T cells. The format is cell-based. Particulars: oligomeric Aβ42 5 μM, 24 hours. How it is done: GHSR1α forms a complex with DRD1 to regulate DRD 1-mediated hippocampal synaptic strength and memory (8). In order to fully evaluate the influence of Aβ on GHSR1α, the inventor next examined whether oligomeric Aβ42 affects heterodimerization of GHSR1α and DRD1 by using HEK 293T cells co-expressing Ghsr1α and Drd1 (FIG. 2c, FIG. S2). After an incubation with oligomeric Aβ42 (5 μM) for 24 hours, the interaction between Ghsr1α and Drd1 determined by Duolink PLA was suppressed (FIGS. 2d-e), indicating the inhibitory effect of oligomeric Aβ42 on Ghsr1α/Drd1 heterodimerization. To test whether GHSR1α/DRD1 interaction was modulated in a clinical setting, the inventor examined hippocampal tissues from 5 patients with AD and compared with tissues from 5 healthy controls. […] Decreased Ghsr1α/Drd1 heterodimerization also occurred in 5×FAD mice, and this effect was exacerbated with age (FIGS. 2h-i). […] FlAsH-based FRET assay was performed to examine the effect of oligomeric Aβ42 ([…]) on agonist (SKF81297 100 μM)-induced Drd1 activity in HEK 293T cells expressing Drd1 with FlAsH in the intercellular loop 3 and ECFP in the C-terminus (Drd1^FlAsH/ECFP). […]
as §1

The target of assay [2] is T5, Drd1 (Mus musculus, UniProt Q61616).
T5 construct: expressed in transfected cells; host or cells: HEK 293T
Put plainly: Duolink PLA and Co-IP of oligomeric Aβ42 with Drd1 in HEK 293T cells. Particulars: oligomeric Aβ42 24 hours, Drd1-expressing HEK 293T cells. The format is binding.

Another assay concerns hippocampal neurons. Put plainly: Synaptic density (vGLUT1/PSD95) in cultured hippocampal neurons. The format is cell-based, mouse. The settings on record: for Aβ-induced synaptic loss / synaptic density / synaptogenic effect, agonist alone: 1 μM ipamorelin or capromorelin; for Aβ-induced synaptic loss / synaptic density: alone or + 2 μM SKF81297. How it is done:
Immunocytochemistry. […] NIS element software was used for image analysis. “Objective Count” dialog was used for intensity measurement. […] The overlapped dots represent synapses.
Primary hippocampal neuron culture. Hippocampal neuron cultures were prepared as previously described (15). In brief, mouse hippocampi were dissected from postnatal day 0-1 pups in cold HBSS. Cells were dissociated by using 0.025% trypsin at 37° C. for 15 minutes, followed by 10 times homogenization in ice cold DMEM. Dissociated cells were then passed through a 100 μm cell strainer (Corning) and centrifuged for 5 minutes at 210×g. The pellet was gently resuspended in neuron culture medium (Neurobasal A with 2% B27 supplement, 0.5 mM L-glutamine, Invitrogen) and plated on poly-D-lysine (Sigma-Aldrich) coated Lab-Tek chamber slides (Nunc, 177445) with appropriate densities.
Agonist treatment on primary cultured neurons. At 14 days in vitro (DIV14) hippocampal neurons were exposed to the synthetic growth hormone secretagogue receptor agonist MK0677 (Tocris, #5272, 1.5 μM) the dopamine D1-like receptor agonist SKF81297 (Sigma-Aldrich, #S143, 2 μM) or a mixture of MK0677 and SKF81297 for 5 minutes. The exposure was followed by immunostaining to examine the effects of Ghsr1α/Drd1 co-activation on Aβ induced synaptic loss or Ghsr1α/Drd1, Aβ/Ghsr1α interaction as described in previous sections.

The target in assay [3] is DRD1 (Homo sapiens, UniProt P21728). Particulars: cited from earlier work.
In the next assay the target is T6, Ghsr1α/Drd1 complex (Mus musculus, UniProt Q61616+Q99P50).
T6 construct: endogenous in cells; host or cells: primary mouse hippocampal neurons (P0-1, DIV14)
Put plainly: Duolink PLA of Ghsr1α/Drd1 complex in cultured hippocampal neurons. It counts as cell-based. The settings on record: oligomeric Aβ42 1 μM, 24 hours; 1.5 μM MK0677, 2 μM SKF81297, or in combination. The source says:
(§2) Duolink In Situ Proximity Ligation Assay (PLA). […] PLA analysis was referred to previous report (66 67). NIH Image J was used for PLA signal quantification.
(§3) Agonist treatment on primary cultured neurons. […] The exposure was followed by immunostaining to examine the effects of Ghsr1α/Drd1 co-activation on Aβ induced synaptic loss or Ghsr1α/Drd1, Aβ/Ghsr1α interaction as described in previous sections.

Assay [4] relates to hippocampal CA3-CA1 pathway. Description: Long-term potentiation (fEPSP) in hippocampal slices. The settings on record: MK0677 1.5 μM, SKF81297 2 μM, alone or in combination.
Description: For electrophysiological experiments, mice were anesthetized with isoflurane and decapitated. […] Slices were allowed to rest for 30 minutes after being transferred to the recording chamber before recordings began. Recordings of local field potentials (LFPs) were performed on an Axon Multiclamp 700B amplifier (Molecular Devices), and data were acquired and analyzed using AxoGraph X (AxoGraph Scientific). A tungsten concentric bipolar microelectrode (World Precision Instruments), and a recording glass electrode (1.5 MS2) filled with recording ACSF, were placed approximately 200 μm apart in the Schaffer collateral-commissural pathway in the CA1 region of the hippocampus. Pulses were delivered in 30 seconds intervals. Before baseline recordings commenced, input-output curves were taken, using 25-150 μA stimulation currents in 25 μA steps. Three sweeps were sampled at each stimulation intensity and averaged to represent the voltage response at each step. Recordings of baseline responses lasted for at least 40 minutes. Stimulation intensity was set to approximately 40% of the minimum intensity required to evoke the maximum response (based on the input-output curve). The stimulation intensity was kept consistent throughout the duration of the experiment. […] LTP was induced using a theta burst stimulation (TBS) protocol consisting of 10 bursts (5 pulses at 100 Hz) repeated at 5 Hz delivered two times 30 seconds apart. After LTP induction, LFPs were recorded for an additional 60 minutes. The slope of the field excitatory postsynaptic potential (fEPSP) was measured in Axograph scientific software and sweeps were averaged in bins of 5 for both the baseline and post LTP induction periods. Changes in LFPs are expressed as percentage change from the averaged baseline values.
Another assay addresses T7, Aβ/Ghsr1α complex (Mus musculus, UniProt Q99P50).
T7 construct: endogenous in cells; host or cells: primary mouse hippocampal neurons; Aβ42 peptide purchased (GenicBio, A-43-T-1000)
Description: Duolink PLA of Aβ/Ghsr1α complex in cultured hippocampal neurons. It counts as cell-based. The settings on record: oligomeric Aβ42 1 μM, 24 hours; 1.5 μM MK0677, 2 μM SKF81297, or in combination.
Excerpt: as §2, §3

A further assay relates to 5×FAD mice. The settings on record: systemic ghrelin treatment; cited from earlier work.

Square brackets hold non-standard residues; d marks the D form. Ends that are not written are not given here. Peptide text beside a SMILES is read from it. d2Nal = N[C@H](Cc1ccc2ccccc2c1)C(=O)O; Aib = CC(C)(N)C(=O)O

T1 sequence (Q99P50 with tags, fused parts or gaps INS247CCPGCC): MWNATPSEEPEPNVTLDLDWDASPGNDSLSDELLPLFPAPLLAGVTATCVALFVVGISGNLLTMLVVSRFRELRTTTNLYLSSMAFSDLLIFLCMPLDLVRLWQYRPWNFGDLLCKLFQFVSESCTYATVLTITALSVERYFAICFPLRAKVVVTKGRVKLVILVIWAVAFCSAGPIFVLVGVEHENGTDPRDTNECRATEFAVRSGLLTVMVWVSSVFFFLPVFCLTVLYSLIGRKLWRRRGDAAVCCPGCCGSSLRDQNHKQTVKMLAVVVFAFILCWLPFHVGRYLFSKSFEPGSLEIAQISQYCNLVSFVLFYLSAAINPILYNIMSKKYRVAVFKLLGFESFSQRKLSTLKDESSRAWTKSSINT
Sequence of DRD1 (P21728 whole entry, species assumed): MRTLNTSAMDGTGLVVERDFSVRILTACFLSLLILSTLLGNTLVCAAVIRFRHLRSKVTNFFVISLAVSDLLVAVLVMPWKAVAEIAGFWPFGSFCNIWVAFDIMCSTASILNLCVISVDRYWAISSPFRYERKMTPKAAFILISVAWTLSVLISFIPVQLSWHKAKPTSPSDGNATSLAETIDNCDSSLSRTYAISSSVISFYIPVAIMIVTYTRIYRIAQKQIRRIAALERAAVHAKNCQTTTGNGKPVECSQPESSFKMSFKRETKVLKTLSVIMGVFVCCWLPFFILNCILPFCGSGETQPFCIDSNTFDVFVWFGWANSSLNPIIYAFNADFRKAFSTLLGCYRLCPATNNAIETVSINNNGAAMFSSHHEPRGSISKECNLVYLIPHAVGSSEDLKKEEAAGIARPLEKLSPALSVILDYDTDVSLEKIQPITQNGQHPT
T2 sequence (Q61616 with tags, fused parts or gaps INS245CCPGCC): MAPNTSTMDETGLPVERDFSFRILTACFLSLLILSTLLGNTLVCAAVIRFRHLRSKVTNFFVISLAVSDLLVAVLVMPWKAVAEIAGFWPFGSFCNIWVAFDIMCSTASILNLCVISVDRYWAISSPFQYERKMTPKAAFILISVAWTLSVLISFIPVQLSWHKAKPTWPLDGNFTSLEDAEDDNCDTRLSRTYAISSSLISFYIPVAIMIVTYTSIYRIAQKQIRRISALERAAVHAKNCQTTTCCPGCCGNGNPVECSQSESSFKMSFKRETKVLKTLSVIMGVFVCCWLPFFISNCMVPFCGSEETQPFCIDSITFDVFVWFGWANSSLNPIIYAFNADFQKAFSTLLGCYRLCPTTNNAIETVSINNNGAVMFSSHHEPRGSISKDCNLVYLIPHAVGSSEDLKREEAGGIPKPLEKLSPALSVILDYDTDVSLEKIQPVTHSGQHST
T5 sequence (Q61616 whole entry): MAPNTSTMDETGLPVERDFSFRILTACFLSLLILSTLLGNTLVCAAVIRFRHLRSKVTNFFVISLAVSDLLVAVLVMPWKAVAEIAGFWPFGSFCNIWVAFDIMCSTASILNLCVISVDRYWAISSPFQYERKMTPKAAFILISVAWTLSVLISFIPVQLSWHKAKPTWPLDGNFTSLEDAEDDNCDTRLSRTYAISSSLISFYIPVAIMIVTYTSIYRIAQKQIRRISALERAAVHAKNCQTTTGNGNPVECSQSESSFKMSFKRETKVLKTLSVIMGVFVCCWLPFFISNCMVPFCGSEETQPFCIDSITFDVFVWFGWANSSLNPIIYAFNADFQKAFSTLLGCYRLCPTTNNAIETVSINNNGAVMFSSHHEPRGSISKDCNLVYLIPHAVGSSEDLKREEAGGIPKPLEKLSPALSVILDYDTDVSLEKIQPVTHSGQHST
T7 sequence (Q99P50 whole entry): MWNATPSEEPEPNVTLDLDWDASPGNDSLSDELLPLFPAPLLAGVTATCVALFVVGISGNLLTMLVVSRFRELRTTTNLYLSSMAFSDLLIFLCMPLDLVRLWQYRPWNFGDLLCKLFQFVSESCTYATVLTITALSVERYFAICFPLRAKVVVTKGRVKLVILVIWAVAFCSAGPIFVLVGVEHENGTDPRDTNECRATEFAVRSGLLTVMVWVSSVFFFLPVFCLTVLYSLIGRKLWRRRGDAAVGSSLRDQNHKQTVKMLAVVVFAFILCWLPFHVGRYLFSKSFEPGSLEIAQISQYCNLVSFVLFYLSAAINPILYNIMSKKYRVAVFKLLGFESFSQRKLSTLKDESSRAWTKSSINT
T7 sequence (Q61616 whole entry, further chain): as the sequence (Q61616 whole entry) above
T4 sequence (Q99P50 whole entry): as the sequence (Q99P50 whole entry) above
T6 sequence (Q99P50 whole entry): as above
T6 sequence (Q61616 whole entry): as the sequence (Q61616 whole entry) above
T3 sequence (Q99P50 with tags, fused parts or gaps DEL42-116): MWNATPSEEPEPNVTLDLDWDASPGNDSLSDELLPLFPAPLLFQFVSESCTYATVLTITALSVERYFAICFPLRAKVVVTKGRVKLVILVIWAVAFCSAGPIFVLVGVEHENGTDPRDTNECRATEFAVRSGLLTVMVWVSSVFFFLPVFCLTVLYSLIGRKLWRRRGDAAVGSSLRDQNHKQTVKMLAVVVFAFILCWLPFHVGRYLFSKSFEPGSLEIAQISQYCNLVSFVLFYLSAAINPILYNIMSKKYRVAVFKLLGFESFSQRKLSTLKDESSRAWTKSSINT

Turning to “oligomeric Aβ42: Aβ42 peptide (GenicBio) incubated at 4° C. for 24 hours to prepare oligomers”, the “impact on FRET ratio in vehicle-treated cells” value with Ghsr1α (no agonist) is given as “no impact”. For the same molecule, the “effect on agonist-induced Ghsr1α activation” value with Ghsr1α (then MK0677 50 μM) is on record as “suppressed”. Further, in the assay with Drd1 [1], the “impact on agonist-induced Drd1 activation” value is “no impact”. Besides, the “interaction with Ghsr1α mutant devoid of aa42-116” value with Ghsr1α Δaa42-116 was “no interaction”. For the same molecule, the “interaction between Ghsr1α and Drd1 (Duolink PLA)” value in the assay with Ghsr1α/Drd1 is listed as “suppressed”. In the assay with Drd1 [2], the Aβ/DRD1 complexes result was “not observed”.
For `CN1N=C2CCN(C(=O)[C@@H](COCc3ccccc3)NC(=O)C(C)(C)N)C[C@@]2(Cc2ccccc2)C1=O` [capromorelin], the “Aβ-induced synaptic loss / synaptic density” value in the assay on hippocampal neurons (oligomeric Aβ42 1 μM, 24 hours) is “could ameliorate”. In addition, the “synaptogenic effect, agonist alone” value in the assay on hippocampal neurons (without oligomeric Aβ42) is “comparable synaptogenic effect with ghrelin”.
As to `Oc1cc2c(cc1O)C(c1ccccc1)CNCC2` (stereo not shown) [SKF38393], the “binding to DRD1 / DRD2” value at DRD1 [3] is given as “selectively bind DRD1”.
Take `Oc1cc2c(cc1O)[C@H]1c3ccccc3CN[C@@H]1CC2` (racemic) [dihydrexidine]: on DRD1 [3], the “binding to DRD1 / DRD2” value is “much weaker binding affinity”.
As for `Oc1cc2c(c(Cl)c1O)CCNCC2c1ccccc1` (stereo not shown) [SKF81297], the Ghsr1α/Drd1 complex formation entry on Ghsr1α/Drd1 complex is recorded as “not the agonists alone”. In assay [4] (slices from 4 month-old 5×FAD mice), the “stimulus-evoked hippocampal LTP in 5×FAD slices” value was “no effect”. Also, in assay [4] (slices from 4 month-old non-Tg mice), the “hippocampal LTP in non-Tg slices” value is recorded as “no effect”. The Aβ/Ghsr1α complex formation entry on Aβ/Ghsr1α complex is “not MK0677 or SKF81297 alone”. For the same molecule, the “synaptic density / oligomeric Aβ42-induced synapse loss” value in the assay on hippocampal neurons (oligomeric Aβ42 1 μM, 24 hours, 1.5 μM MK0677, 2 μM SKF81297, or in combination) was “failed to alleviate”. Also, the “synaptic density, agonist alone” value in the assay on hippocampal neurons (without oligomeric Aβ42, MK0677 at doses greater than 1.5 μM, SKF81297 2 μM) is “increased synaptic density”.
In the case of `CC(C)(N)C(=O)N[C@@H](Cc1c[nH]cn1)C(=O)N[C@H](Cc1ccc2ccccc2c1)C(=O)N[C@H](Cc1ccccc1)C(=O)N[C@@H](CCCCN)C(N)=O` [ipamorelin] (H-[Aib]H[d2Nal][dF]K-NH2), in the assay on hippocampal neurons (oligomeric Aβ42 1 μM, 24 hours), the “Aβ-induced synaptic loss / synaptic density” value is “could ameliorate”. Besides, the “synaptogenic effect, agonist alone” value in the assay on hippocampal neurons (without oligomeric Aβ42) is recorded as “comparable synaptogenic effect with ghrelin”.
Turning to “ghrelin: the natural ligand of GHSR1α (GSSFLSPEHQRVQQRKESKKPPAKLQPR; ends and bridges not checked; UniProt Q9UBU3 24-51, looked up)”, the “hippocampal Aβ load in 5×FAD mice” value with 5×FAD mice is “did not affect hippocampal Aβ load”.
